PubChem BioAssay (NCI)
Where “and” joins values, the source holds several entries; their conditions need not be identical. Equal entries are not always repeated.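 How tested: cells in 96-well plates exposed to compound for 48 hours at five concentrations. Here, GI50 denotes the concentration required for 50% inhibition of growth. TGI: total growth inhibition.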

Columns and labels:
Experiment in all cases: inhibition of tumour cell growth, NCI panel, 48 h
HCT-15 colon = test system: HCT-15 colon
HOP-62 NSCLC = test system: HOP-62 NSCLC
HS 578T breast = test system: HS 578T breast
IGROV1 ovarian = test system: IGROV1 ovarian
K-562 leukemia = test system: K-562 leukemia
M14 melanoma = test system: M14 melanoma
NCI-H522 lung = test system: NCI-H522 lung
OVCAR-5 ovarian = test system: OVCAR-5 ovarian
OVCAR-8 ovarian = test system: OVCAR-8 ovarian
UACC-62 melanoma = test system: UACC-62 melanoma

Structure (SMILES): Oc1ccc(N=Nc2ccc(N=Nc3ccccc3)cc2)cc1
- GI50 (HCT-15 colon): 0.855 µM
- TGI (HCT-15 colon): 12.9 µM
- GI50 (HOP-62 NSCLC): 2.7 µM
- TGI (HOP-62 NSCLC): 9.05 µM
- GI50 (HS 578T breast): 12.4 µM
- TGI (HS 578T breast): 51 µM
- GI50 (IGROV1 ovarian): 3.5 µM
- TGI (IGROV1 ovarian): 18.2 µM
- GI50 (K-562 leukemia): 0.615 µM
- TGI (K-562 leukemia): 12.7 µM
- GI50 (M14 melanoma): 3.01 µM
- TGI (M14 melanoma): 10.1 µM
- GI50 (NCI-H522 lung): 0.832 µM
- TGI (NCI-H522 lung): 3.94 µM
- GI50 (OVCAR-5 ovarian): 4.16 µM
- TGI (OVCAR-5 ovarian): 17.3 µM
- GI50 (OVCAR-8 ovarian): 3.2 µM
- TGI (OVCAR-8 ovarian): 24.2 µM
- GI50 (UACC-62 melanoma): 0.874 µM
- TGI (UACC-62 melanoma): 2.41 µM

Structure (SMILES): CCCCCN(CCCCC)CC(O)c1cc2c(c3ccccc13)CCCC2 (stereo not given)
- GI50 (HCT-15 colon): 5.31 µM and 6.52 µM
- TGI (HCT-15 colon): 20.8 µM and 26.4 µM
- GI50 (HOP-62 NSCLC): 3.62 µM and 12.1 µM
- TGI (HOP-62 NSCLC): 12.9 µM and 25.7 µM
- GI50 (HS 578T breast): 8.51 µM
- TGI (HS 578T breast): 23.9 µM
- GI50 (IGROV1 ovarian): 3.5 µM and 6.44 µM
- TGI (IGROV1 ovarian): 17.3 µM and 33.3 µM
- GI50 (K-562 leukemia): 2.56 µM and 16.3 µM
- TGI (K-562 leukemia): 10.9 µM and > 100 µM
- GI50 (M14 melanoma): 4.76 µM and 10.4 µM
- TGI (M14 melanoma): 16.3 µM and 23.8 µM
- GI50 (NCI-H522 lung): 2.02 µM and 3.24 µM
- TGI (NCI-H522 lung): 7.72 µM and 13.4 µM
- GI50 (OVCAR-5 ovarian): 11.1 µM and 13.5 µM
- TGI (OVCAR-5 ovarian): 23.6 µM and 31.5 µM
- GI50 (OVCAR-8 ovarian): 11.3 µM and 14.9 µM
- TGI (OVCAR-8 ovarian): 26.1 µM and 32.9 µM
- GI50 (UACC-62 melanoma): 3.31 µM and 11.2 µM
- TGI (UACC-62 melanoma): 12.9 µM and 29.2 µM

Structure (SMILES): O=C1C(=O)c2ccccc2C(O)=C1CCCCCCCCC1CCCCC1
- TGI (HCT-15 colon): 19.2 µM
- TGI (HOP-62 NSCLC): 36.7 µM
- TGI (HS 578T breast): 39.6 µM
- TGI (IGROV1 ovarian): 19.2 µM
- TGI (K-562 leukemia): 12.1 µM
- TGI (M14 melanoma): 26.2 µM
- TGI (NCI-H522 lung): 25.7 µM
- TGI (OVCAR-5 ovarian): 32.2 µM
- TGI (OVCAR-8 ovarian): 29.5 µM
- TGI (UACC-62 melanoma): 18.4 µM

Structure (SMILES): OC(CNC1CCCC1)Cn1c2ccccc2c2ccccc21 (stereo not given)
- GI50 (HCT-15 colon): 80.5 µM
- TGI (HCT-15 colon): > 100 µM
- GI50 (HOP-62 NSCLC): 18.9 µM
- TGI (HOP-62 NSCLC): 42.6 µM
- GI50 (HS 578T breast): 21.8 µM
- TGI (HS 578T breast): 83.7 µM
- GI50 (IGROV1 ovarian): 72.9 µM
- TGI (IGROV1 ovarian): > 100 µM
- GI50 (K-562 leukemia): > 100 µM
- TGI (K-562 leukemia): > 100 µM
- GI50 (M14 melanoma): > 100 µM
- TGI (M14 melanoma): > 100 µM
- GI50 (NCI-H522 lung): 20 µM
- TGI (NCI-H522 lung): 82.2 µM
- GI50 (OVCAR-5 ovarian): 35.9 µM
- TGI (OVCAR-5 ovarian): > 100 µM
- GI50 (OVCAR-8 ovarian): 27.6 µM
- TGI (OVCAR-8 ovarian): > 100 µM
- GI50 (UACC-62 melanoma): 32.7 µM
- TGI (UACC-62 melanoma): > 100 µM

Structure (SMILES): N=C(N)c1ccc(-c2ccc(-c3cccs3)s2)nc1
- GI50 (HCT-15 colon): 1.93 µM
- TGI (HCT-15 colon): 4.47 µM
- GI50 (HOP-62 NSCLC): 1.94 µM
- TGI (HOP-62 NSCLC): 5.17 µM
- GI50 (HS 578T breast): 1.55 µM
- TGI (HS 578T breast): 4.66 µM
- GI50 (IGROV1 ovarian): 1.76 µM
- TGI (IGROV1 ovarian): 3.56 µM
- GI50 (K-562 leukemia): 1.61 µM
- TGI (K-562 leukemia): 3.81 µM
- GI50 (M14 melanoma): 1.86 µM
- TGI (M14 melanoma): 3.63 µM
- GI50 (NCI-H522 lung): 1.61 µM
- TGI (NCI-H522 lung): 3.44 µM
- GI50 (OVCAR-5 ovarian): 1.26 µM
- TGI (OVCAR-5 ovarian): 5.68 µM
- GI50 (OVCAR-8 ovarian): 1.59 µM
- TGI (OVCAR-8 ovarian): 4.06 µM
- GI50 (UACC-62 melanoma): 1.7 µM
- TGI (UACC-62 melanoma): 3.22 µM

Structure (SMILES): N#Cc1nc2cc(F)c(F)cc2nc1-c1ccc(Cl)cc1
- GI50 (HCT-15 colon): 1.44 µM
- TGI (HCT-15 colon): 2.76 µM
- GI50 (HOP-62 NSCLC): 45 µM
- TGI (HOP-62 NSCLC): > 100 µM
- GI50 (HS 578T breast): 1.72 µM
- TGI (HS 578T breast): 4.43 µM
- GI50 (IGROV1 ovarian): 0.673 µM
- TGI (IGROV1 ovarian): 2.31 µM
- GI50 (K-562 leukemia): 2.99 µM
- TGI (K-562 leukemia): > 27.8 µM
- GI50 (M14 melanoma): 7.93 µM
- TGI (M14 melanoma): 23.8 µM
- GI50 (NCI-H522 lung): 13.5 µM
- TGI (NCI-H522 lung): > 48.2 µM
- GI50 (OVCAR-5 ovarian): > 100 µM
- TGI (OVCAR-5 ovarian): > 100 µM
- GI50 (OVCAR-8 ovarian): 2.09 µM
- TGI (OVCAR-8 ovarian): 4.76 µM
- GI50 (UACC-62 melanoma): 0.645 µM
- TGI (UACC-62 melanoma): 7.17 µM

Structure (SMILES): OCCNCCNc1c2ccccc2nc2oc3ccccc3c12
- GI50 (HCT-15 colon): 7.57 µM
- TGI (HCT-15 colon): 53.1 µM
- GI50 (HOP-62 NSCLC): 6.62 µM
- TGI (HOP-62 NSCLC): 20.2 µM
- GI50 (HS 578T breast): 6.8 µM
- TGI (HS 578T breast): 24.1 µM
- GI50 (IGROV1 ovarian): 7.3 µM
- TGI (IGROV1 ovarian): 38.3 µM
- GI50 (K-562 leukemia): 33.9 µM
- TGI (K-562 leukemia): > 100 µM
- GI50 (M14 melanoma): 12 µM
- TGI (M14 melanoma): 24.5 µM
- GI50 (NCI-H522 lung): 7.73 µM
- TGI (NCI-H522 lung): 23.7 µM
- GI50 (OVCAR-5 ovarian): 24.2 µM
- TGI (OVCAR-5 ovarian): 71.6 µM
- GI50 (OVCAR-8 ovarian): 9.46 µM
- TGI (OVCAR-8 ovarian): > 100 µM
- GI50 (UACC-62 melanoma): 14.1 µM
- TGI (UACC-62 melanoma): 31.5 µM

Structure (SMILES): CCCCCCCCCCCC[n+]1ccc(C(N)=O)cc1
- GI50 (HCT-15 colon): 12.7 µM
- TGI (HCT-15 colon): 43.6 µM
- GI50 (HOP-62 NSCLC): 2.84 µM
- TGI (HOP-62 NSCLC): 10.2 µM
- GI50 (HS 578T breast): 2.55 µM
- TGI (HS 578T breast): 8.49 µM
- GI50 (IGROV1 ovarian): 1.4 µM
- TGI (IGROV1 ovarian): 3.5 µM
- GI50 (K-562 leukemia): 2.87 µM
- TGI (K-562 leukemia): > 100 µM
- GI50 (M14 melanoma): 2.58 µM
- TGI (M14 melanoma): 9.7 µM
- GI50 (NCI-H522 lung): 2.33 µM
- TGI (NCI-H522 lung): 8.38 µM
- GI50 (OVCAR-5 ovarian): 1.47 µM
- TGI (OVCAR-5 ovarian): 4.56 µM
- GI50 (OVCAR-8 ovarian): 3.34 µM
- TGI (OVCAR-8 ovarian): 13.1 µM
- GI50 (UACC-62 melanoma): 2.74 µM
- TGI (UACC-62 melanoma): 11.6 µM

Structure (SMILES): COC(=O)[C@@H](C)C[C@H](Cc1ccccc1)NC(=O)c1csc([C@@H](C[C@H](C(C)C)N(C)C(=O)C2(NC(=O)[C@H]3CCCCN3C)CC2)OC(C)=O)n1
- GI50 (HCT-15 colon): 0.424 µM
- TGI (HOP-62 NSCLC): > 33.3 µM
- GI50 (HS 578T breast): 0.0191 µM
- GI50 (IGROV1 ovarian): 0.00147 µM and 0.00333 µM
- TGI (IGROV1 ovarian): > 33.3 µM
- GI50 (K-562 leukemia): 0.00244 µM and 0.00333 µM
- TGI (K-562 leukemia): > 33.3 µM
- GI50 (M14 melanoma): 0.00504 µM and 0.00333 µM
- TGI (M14 melanoma): 0.468 µM
- GI50 (NCI-H522 lung): 0.000537 µM
- TGI (NCI-H522 lung): 0.00491 µM
- TGI (OVCAR-5 ovarian): > 33.3 µM
- TGI (OVCAR-8 ovarian): > 33.3 µM
- GI50 (UACC-62 melanoma): 0.00352 µM and 0.00333 µM
- TGI (UACC-62 melanoma): > 33.3 µM

Structure (SMILES): O=C(CCCCCCC(=O)Nc1ccc2c(c1)/C(=C/c1ccc[nH]1)C(=O)N2)NO
- GI50 (HCT-15 colon): 3.93 µM
- TGI (HCT-15 colon): > 49.3 µM
- GI50 (HOP-62 NSCLC): 0.353 µM
- TGI (HOP-62 NSCLC): 4.49 µM
- GI50 (HS 578T breast): 1.01 µM
- TGI (HS 578T breast): > 100 µM
- GI50 (IGROV1 ovarian): 1.61 µM
- TGI (IGROV1 ovarian): 7.9 µM
- GI50 (K-562 leukemia): 0.333 µM
- TGI (K-562 leukemia): > 100 µM
- GI50 (M14 melanoma): 0.427 µM
- TGI (M14 melanoma): 10 µM
- GI50 (NCI-H522 lung): 0.0829 µM
- TGI (NCI-H522 lung): 0.891 µM
- GI50 (OVCAR-5 ovarian): 0.755 µM
- TGI (OVCAR-5 ovarian): 5.75 µM
- GI50 (OVCAR-8 ovarian): 0.472 µM
- TGI (OVCAR-8 ovarian): > 89.4 µM
- GI50 (UACC-62 melanoma): 0.287 µM
- TGI (UACC-62 melanoma): 1.39 µM
